Source: ChEMBL document CHEMBL5316328, “Discovery of AXL Degraders with Improved Potencies in Triple-Negative Breast Cancer (TNBC) Cells” (J Med Chem, 2023)
The source made the active and inactive calls. No cut-off for these calls is given here.

Tests used:
MDA-MB-453 = assay: Antiproliferative activity against human MDA-MB-453 cells assessed as inhibition of cell growth incubated for 72 hrs by CCK8 assay; assay type: functional, cell-based; conditions: MDA-MB-453, 72 h
MDA-MB-231 [1] = assay: Induction of cell cycle arrest in human MDA-MB-231 cells assessed as S phase cells at 300 nM incubated for 24 hrs by PI staining based flow cytometric analysis (reference value: 9.64 to 10.79%); assay type: functional
MDA-MB-231 [2] = assay: Induction of apoptosis in human MDA-MB-231 cells assessed as necrotic cells at 33.3 nM incubated for 48 hrs by Annexin V-PE staining based flow cytometric analysis (reference value: 2.64 to 3.23%); assay type: functional
MDA-MB-231 [3] = assay: Induction of apoptosis in human MDA-MB-231 cells assessed as early apoptotic cells at 300 nM incubated for 48 hrs by Annexin V-PE staining based flow cytometric analysis (reference value: 3.95 to 3.74%); assay type: functional
[4] = target: Serine/threonine-protein kinase AKT (Homo sapiens) (UniProt P31751+Q9Y243+P31749); assay: Inhibition of AKT phosphorylation in human MDA-MB-231 incubated for 18 hrs by Western blot analysis; assay type: cell-based; conditions: dose 1.2-100 nM
Serine/threonine-protein kinase AKT (Homo sapiens), sequence (P31749 whole entry, looked up): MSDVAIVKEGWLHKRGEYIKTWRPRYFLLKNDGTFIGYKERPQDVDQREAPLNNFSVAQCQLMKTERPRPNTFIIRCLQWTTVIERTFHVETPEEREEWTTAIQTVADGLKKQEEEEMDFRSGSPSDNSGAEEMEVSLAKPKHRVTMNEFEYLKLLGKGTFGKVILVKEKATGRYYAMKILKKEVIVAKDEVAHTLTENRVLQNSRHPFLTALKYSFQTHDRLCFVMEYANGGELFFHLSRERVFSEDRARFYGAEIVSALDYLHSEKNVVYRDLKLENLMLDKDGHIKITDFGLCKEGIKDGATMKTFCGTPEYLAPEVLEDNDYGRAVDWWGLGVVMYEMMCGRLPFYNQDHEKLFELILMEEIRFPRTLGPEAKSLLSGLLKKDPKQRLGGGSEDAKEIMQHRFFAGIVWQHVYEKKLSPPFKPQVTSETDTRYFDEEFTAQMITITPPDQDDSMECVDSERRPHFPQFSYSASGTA
Serine/threonine-protein kinase AKT (Homo sapiens), sequence (P31751 whole entry, looked up): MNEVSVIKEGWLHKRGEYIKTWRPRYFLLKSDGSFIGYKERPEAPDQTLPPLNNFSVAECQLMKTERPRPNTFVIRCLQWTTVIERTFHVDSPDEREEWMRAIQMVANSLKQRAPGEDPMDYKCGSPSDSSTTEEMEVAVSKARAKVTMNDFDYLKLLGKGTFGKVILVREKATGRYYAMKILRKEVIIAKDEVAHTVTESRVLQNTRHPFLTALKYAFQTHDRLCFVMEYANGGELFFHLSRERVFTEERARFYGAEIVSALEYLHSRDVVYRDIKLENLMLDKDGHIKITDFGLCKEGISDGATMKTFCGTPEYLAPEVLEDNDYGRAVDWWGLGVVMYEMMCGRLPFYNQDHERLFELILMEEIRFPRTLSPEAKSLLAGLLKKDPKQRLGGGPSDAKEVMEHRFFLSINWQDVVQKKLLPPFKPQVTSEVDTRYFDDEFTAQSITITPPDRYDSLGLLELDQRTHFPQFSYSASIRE
Serine/threonine-protein kinase AKT (Homo sapiens), sequence (Q9Y243 whole entry, looked up): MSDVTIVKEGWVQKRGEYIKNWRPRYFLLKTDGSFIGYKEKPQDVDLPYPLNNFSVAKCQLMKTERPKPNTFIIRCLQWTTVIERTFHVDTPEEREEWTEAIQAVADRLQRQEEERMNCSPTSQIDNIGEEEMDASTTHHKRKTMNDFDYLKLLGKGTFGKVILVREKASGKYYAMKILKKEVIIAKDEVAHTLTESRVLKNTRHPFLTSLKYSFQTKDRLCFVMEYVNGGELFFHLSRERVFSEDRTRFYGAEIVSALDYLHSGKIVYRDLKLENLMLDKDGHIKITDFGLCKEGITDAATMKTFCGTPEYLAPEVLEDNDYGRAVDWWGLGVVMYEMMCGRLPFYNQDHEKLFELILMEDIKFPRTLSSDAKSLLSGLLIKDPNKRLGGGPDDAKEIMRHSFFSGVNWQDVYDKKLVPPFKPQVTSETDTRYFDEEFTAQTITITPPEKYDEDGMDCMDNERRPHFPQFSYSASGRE

MDA-MB-231 [5] = assay: Induction of apoptosis in human MDA-MB-231 cells assessed as late apoptotic cells at 100 nM incubated for 48 hrs by Annexin V-PE staining based flow cytometric analysis (reference value: 0.32 to 0.82%); assay type: functional
[6] = target: T1, Protein cereblon/Tyrosine-protein kinase receptor UFO (Homo sapiens, UniProt P30530+Q96SW2); assay: PROTAC activity at CRBN/AXL in human MDA-MB-231 cells assessed as induction of AXL degradation by measuring half-life of AXL incubated upto 20 hrs in the presence of cycloheximide by Western blot analysis; assay type: cell-based
Target sequence in this assay (P30530 26-894 limits assumed): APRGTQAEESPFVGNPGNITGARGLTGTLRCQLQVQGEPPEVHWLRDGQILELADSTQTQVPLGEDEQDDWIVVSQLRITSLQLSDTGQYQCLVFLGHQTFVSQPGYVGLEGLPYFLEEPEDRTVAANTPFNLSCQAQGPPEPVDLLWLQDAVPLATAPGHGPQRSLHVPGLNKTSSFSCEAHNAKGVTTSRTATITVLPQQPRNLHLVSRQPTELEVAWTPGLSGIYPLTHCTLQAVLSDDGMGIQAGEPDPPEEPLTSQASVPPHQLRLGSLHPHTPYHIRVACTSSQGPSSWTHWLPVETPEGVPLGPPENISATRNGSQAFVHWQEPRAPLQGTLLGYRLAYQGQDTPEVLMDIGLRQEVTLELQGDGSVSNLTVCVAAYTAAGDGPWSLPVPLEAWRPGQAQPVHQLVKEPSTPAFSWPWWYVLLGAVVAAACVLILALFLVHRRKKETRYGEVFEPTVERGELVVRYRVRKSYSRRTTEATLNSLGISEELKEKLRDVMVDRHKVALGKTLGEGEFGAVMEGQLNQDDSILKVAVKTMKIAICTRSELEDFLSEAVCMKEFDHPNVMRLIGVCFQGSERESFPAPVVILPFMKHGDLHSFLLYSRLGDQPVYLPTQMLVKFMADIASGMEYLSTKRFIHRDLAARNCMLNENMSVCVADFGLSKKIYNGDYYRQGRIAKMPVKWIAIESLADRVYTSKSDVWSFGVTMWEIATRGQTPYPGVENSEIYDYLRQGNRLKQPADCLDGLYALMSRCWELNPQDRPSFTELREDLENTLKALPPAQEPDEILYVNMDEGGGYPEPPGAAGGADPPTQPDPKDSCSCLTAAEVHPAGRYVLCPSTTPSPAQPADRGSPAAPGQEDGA
Target sequence in this assay (Q96SW2 whole entry partner): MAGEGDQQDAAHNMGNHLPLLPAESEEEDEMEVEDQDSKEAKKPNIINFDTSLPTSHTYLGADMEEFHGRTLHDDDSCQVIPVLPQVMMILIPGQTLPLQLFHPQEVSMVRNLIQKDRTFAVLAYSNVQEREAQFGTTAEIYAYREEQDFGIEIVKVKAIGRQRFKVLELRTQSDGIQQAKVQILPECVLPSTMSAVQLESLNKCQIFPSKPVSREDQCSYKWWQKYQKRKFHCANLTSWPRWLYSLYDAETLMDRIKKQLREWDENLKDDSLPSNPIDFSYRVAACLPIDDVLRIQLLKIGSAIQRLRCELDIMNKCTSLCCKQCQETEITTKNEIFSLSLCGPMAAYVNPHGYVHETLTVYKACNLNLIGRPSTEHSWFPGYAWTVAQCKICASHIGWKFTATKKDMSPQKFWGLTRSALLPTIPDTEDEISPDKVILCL

MDA-MB-231 [7] = assay: Induction of cell cycle arrest in human MDA-MB-231 cells assessed as G0/G1 phase cells at 100 nM incubated for 24 hrs by PI staining based flow cytometric analysis (reference value: 63.32 to 64.94%); assay type: functional
MDA-MB-231 [8] = assay: Induction of cell cycle arrest in human MDA-MB-231 cells assessed as decrease in cyclin B1 level at 11.1 to 300 nM by Western blot analysis; assay type: functional, cell-based; conditions: dose 11.1-300 nM
MDA-MB-231 [9] = assay: Induction of apoptosis in human MDA-MB-231 cells assessed as downregulation of caspase-9 expression by Western blot analysis; assay type: functional, cell-based; conditions: dose 11.1-300 nM
[10] = target: T1, Protein cereblon/Tyrosine-protein kinase receptor UFO; assay: PROTAC activity at CRBN/AXL in human MDA-MB-231 cells expressing AXL assessed as induction of AXL degradation at 0.016 to 10 nM incubated for 24 hrs by Western blot analysis; assay type: cell-based; conditions: dose 0.016-10 nM
Target sequence in this assay (P30530 26-894 limits assumed): as the sequence (P30530 26-894 limits assumed) above
Target sequence in this assay (Q96SW2 whole entry partner): as the sequence (Q96SW2 whole entry partner) above

MDA-MB-231 [11] = assay: Induction of apoptosis in human MDA-MB-231 cells assessed as necrotic cells at 300 nM incubated for 48 hrs by Annexin V-PE staining based flow cytometric analysis (reference value: 2.64 to 3.23%); assay type: functional
[12] = target: T1, Protein cereblon/Tyrosine-protein kinase receptor UFO; assay: PROTAC activity at CRBN/AXL in human MDA-MB-231 cells assessed as induction of AXL degradation by measuring maximal efficacy at 0.08 uM incubated for 24 hrs by Western blot analysis relative to control; assay type: cell-based
Target sequence in this assay (P30530 26-894 limits assumed): as the sequence (P30530 26-894 limits assumed) above
Target sequence in this assay (Q96SW2 whole entry partner): as the sequence (Q96SW2 whole entry partner) above

[13] = target: ALK tyrosine kinase receptor (Homo sapiens, UniProt Q9UM73); assay: Inhibition of ALK (unknown origin)
ALK tyrosine kinase receptor, sequence (Q9UM73 whole entry): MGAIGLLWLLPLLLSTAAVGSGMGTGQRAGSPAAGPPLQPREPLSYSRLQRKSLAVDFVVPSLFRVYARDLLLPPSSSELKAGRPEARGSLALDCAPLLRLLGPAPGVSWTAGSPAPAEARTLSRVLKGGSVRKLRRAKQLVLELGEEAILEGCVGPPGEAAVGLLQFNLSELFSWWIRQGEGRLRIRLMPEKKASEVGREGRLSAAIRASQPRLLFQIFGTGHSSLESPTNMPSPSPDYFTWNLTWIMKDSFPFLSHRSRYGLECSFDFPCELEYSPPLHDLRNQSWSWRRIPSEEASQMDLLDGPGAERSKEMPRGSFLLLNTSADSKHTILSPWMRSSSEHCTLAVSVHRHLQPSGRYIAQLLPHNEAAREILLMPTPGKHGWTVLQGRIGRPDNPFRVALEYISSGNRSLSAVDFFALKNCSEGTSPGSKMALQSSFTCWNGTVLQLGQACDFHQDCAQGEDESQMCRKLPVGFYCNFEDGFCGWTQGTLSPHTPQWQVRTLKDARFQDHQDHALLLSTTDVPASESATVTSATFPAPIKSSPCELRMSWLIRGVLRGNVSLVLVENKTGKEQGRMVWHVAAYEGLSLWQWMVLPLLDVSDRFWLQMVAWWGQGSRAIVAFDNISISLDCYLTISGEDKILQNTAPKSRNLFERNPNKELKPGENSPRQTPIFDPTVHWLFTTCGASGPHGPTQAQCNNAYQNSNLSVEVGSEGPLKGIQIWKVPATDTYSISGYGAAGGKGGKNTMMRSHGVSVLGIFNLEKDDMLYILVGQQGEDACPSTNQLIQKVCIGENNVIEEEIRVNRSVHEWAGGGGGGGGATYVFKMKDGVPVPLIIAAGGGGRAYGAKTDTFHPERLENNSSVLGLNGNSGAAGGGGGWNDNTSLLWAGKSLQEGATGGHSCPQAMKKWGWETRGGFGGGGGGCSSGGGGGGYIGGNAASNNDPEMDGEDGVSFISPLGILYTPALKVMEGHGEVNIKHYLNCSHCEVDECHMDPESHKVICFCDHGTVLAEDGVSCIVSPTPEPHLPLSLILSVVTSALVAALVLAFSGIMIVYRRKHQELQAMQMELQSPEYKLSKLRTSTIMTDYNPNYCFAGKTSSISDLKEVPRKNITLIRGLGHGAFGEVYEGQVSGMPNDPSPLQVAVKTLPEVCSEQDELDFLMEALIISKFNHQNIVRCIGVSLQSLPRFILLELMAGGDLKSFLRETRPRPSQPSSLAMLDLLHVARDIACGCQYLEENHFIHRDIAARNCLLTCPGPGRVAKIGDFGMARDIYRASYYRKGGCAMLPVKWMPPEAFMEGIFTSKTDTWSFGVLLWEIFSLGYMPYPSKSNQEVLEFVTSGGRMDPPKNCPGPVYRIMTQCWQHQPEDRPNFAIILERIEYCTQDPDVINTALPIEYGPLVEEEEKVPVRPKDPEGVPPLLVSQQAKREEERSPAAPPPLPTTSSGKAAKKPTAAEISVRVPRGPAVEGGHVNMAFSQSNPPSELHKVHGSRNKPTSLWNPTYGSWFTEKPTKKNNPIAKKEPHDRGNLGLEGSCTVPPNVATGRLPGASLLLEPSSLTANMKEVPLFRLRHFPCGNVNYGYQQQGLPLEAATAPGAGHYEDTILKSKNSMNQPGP

MDA-MB-231 [14] = assay: Induction of apoptosis in human MDA-MB-231 cells assessed as viable cells at 100 nM incubated for 48 hrs by Annexin V-PE staining based flow cytometric analysis (reference value: 92.59 to 92.71%); assay type: functional; conditions: read-out: Activity
Homo sapiens = species: Homo sapiens; assay: Antitumor activity against patient-derived breast cancer organoid assessed as decrease in organoid size at 5 uM incubated for 120 hrs by bright-field imaging microscopic analysis; assay type: functional, tissue-based
MDA-MB-231 [15] = assay: Induction of apoptosis in human MDA-MB-231 cells assessed as necrotic cells at 100 nM incubated for 48 hrs by Annexin V-PE staining based flow cytometric analysis (reference value: 2.64 to 3.23%); assay type: functional
MDA-MB-231 [16] = assay: Induction of apoptosis in human MDA-MB-231 cells assessed as viable cells at 300 nM incubated for 48 hrs by Annexin V-PE staining based flow cytometric analysis (reference value: 92.59 to 92.71%); assay type: functional; conditions: read-out: Activity
[17] = target: T1, Protein cereblon/Tyrosine-protein kinase receptor UFO; assay: PROTAC activity at CRBN/AXL in human MDA-MB-231 cells assessed as induction of AXL degradation incubated for 24 hrs by immunoblot analysis; assay type: cell-based
MDA-MB-231 [18] = assay: Induction of cell cycle arrest in human MDA-MB-231 cells assessed as S phase cells at 33.3 nM incubated for 24 hrs by PI staining based flow cytometric analysis (reference value: 9.64 to 10.79%); assay type: functional
MDA-MB-231 [19] = assay: Inhibition of migration in human MDA-MB-231 cells incubated for 18 hrs by transwell assay; assay type: functional, cell-based; conditions: dose 3.7-100 nM
MDA-MB-231 [20] = assay: Induction of cell cycle arrest in human MDA-MB-231 cells assessed as accumulation of cell at G2/M phase at 100 nM incubated for 24 hrs by PI staining based flow cytometric analysis (reference value: 24.34 to 24.44%); assay type: functional
MDA-MB-231 [21] = assay: Induction of cell cycle arrest in human MDA-MB-231 cells assessed as decrease in CDK2 level at 11.1 to 300 nM by Western blot analysis; assay type: functional, cell-based; conditions: dose 11.1-300 nM
MDA-MB-231 [22] = assay: Induction of apoptosis in human MDA-MB-231 cells assessed as late apoptotic cells at 33.3 nM incubated for 48 hrs by Annexin V-PE staining based flow cytometric analysis (reference value: 0.32 to 0.82%); assay type: functional
[23] = Antitumor activity against patient-derived breast cancer organoid assessed as reduction in cell viability incubated for 120 hrs by CellTiter-Glo 3D assay; assay type: functional, tissue-based; conditions: Homo sapiens
[24] = target: Casein kinase I isoform alpha (Homo sapiens) (UniProt P48729); assay: Induction of CK1alpha degradation in human MDA-MB-231 cells at 10 uM incubated for 24 hrs by Western blot analysis; assay type: cell-based
Casein kinase I isoform alpha (Homo sapiens), sequence (P48729 2-337 limits assumed): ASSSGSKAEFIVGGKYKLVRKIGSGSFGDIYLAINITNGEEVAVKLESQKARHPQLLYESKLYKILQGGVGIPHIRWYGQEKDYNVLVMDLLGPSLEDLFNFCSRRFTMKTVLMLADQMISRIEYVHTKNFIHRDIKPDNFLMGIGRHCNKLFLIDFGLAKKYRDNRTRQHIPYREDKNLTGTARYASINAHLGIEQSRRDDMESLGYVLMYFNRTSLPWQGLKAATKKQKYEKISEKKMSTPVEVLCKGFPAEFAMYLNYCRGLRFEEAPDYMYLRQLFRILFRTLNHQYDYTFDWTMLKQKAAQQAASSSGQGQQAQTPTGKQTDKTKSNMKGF

MDA-MB-231 [25] = assay: Antiproliferative activity against human MDA-MB-231 cells assessed as reduction in cell viability preincubated with N-(4-((6,7-dimethoxyquinazolin-4-yl)oxy)-3-fluorophenyl)-6-ethyl-1,2-dimethyl-4-oxo-1,4-dihydroquinoline-3-carboxamide for 6 hrs followed by compound treatment and measured after 24 hrs by CCK8 assay; assay type: functional, cell-based
MDA-MB-231 [26] = assay: Antitumor activity against human MDA-MB-231 cells xenografted in Balb/c nude mouse assessed as tumor growth inhibition at 20 mg/kg, ip administered for 22 days and measured 24 hrs post last dose relative to control; assay type: functional; conditions: MDA-MB-231, 552 h, time 23 day, read-out: TGI

## CCc1ccc2c(c1)c(=O)c(C(=O)Nc1ccc(Oc3ncnc4cc(OCCCCCC(=O)Nc5ccc6c(c5)CN(C5CCC(=O)NC5=O)C6=O)c(OC)cc34)c(F)c1)c(C)n2C (centres undefined)
MDA-MB-453
  IC50: > 5000 nM
MDA-MB-231 [1]
  Activity: 16.29%
MDA-MB-231 [2]
  Activity: 1.2%
MDA-MB-231 [3]
  Activity: 20.49%
[4]
  inhibition: Dose-Dependent Effect
MDA-MB-231 [5]
  Activity: 0.88%
[6]
  T1/2: 8 h
MDA-MB-231 [7]
  Activity: 46.81%
MDA-MB-231 [8]
  Activity: Active
MDA-MB-231 [9]
  Activity: Dose-Dependent Effect
[10]
  Activity: Active
MDA-MB-231 [11]
  Activity: 4.59%
[12]
  Emax: 80.5%
[13]
  IC50: 4.94 nM
MDA-MB-231 [14]
  viability at 0.1 µM: 83.4%
Homo sapiens
  Activity: Active
MDA-MB-231 [15]
  Activity: 1.17%
MDA-MB-231 [16]
  viability at 0.3 µM: 74.1%
[17]
  Activity: Dose-Dependent Effect
  EC50: 5 nM
MDA-MB-231 [18]
  Activity: 14.52%
MDA-MB-231 [19]
  inhibition: Dose-Dependent Effect
MDA-MB-231 [20]
  Activity: 31.16%
MDA-MB-231 [21]
  Activity: Active
MDA-MB-231 [22]
  Activity: 0.56%
[23]
  IC50: 20 nM
[24]
  Activity: inactive
MDA-MB-231 [25]
  Activity: inactive
MDA-MB-231 [26]
  inhibition in vivo at 20 mg/kg: 62.5%
